Source: patent US20180207228A1, “PEPTIDE COMBINATIONS AND USES THEREOF FOR TREATING GRASS ALLERGY” (ALK-Abelló A/S, priority 2015, published 2018)
Where no end group is shown, it is not given here.

What was measured:
Type in all cases: cell-based, human
[1] = system: release of IFN-γ upon T cell activation; assay: Fluorospot assay, IFN-γ release (DK1-TCL01, US1-TCL01); conditions: head prints TCL-02 DK1; 17 TCL-01 DK1 lines
Protocol: (§1) Grass allergic donors were recruited (cohort DK1 including 30 grass allergic individuals, DK2 including 24 grass allergic individuals and US1 including 15 grass allergic individuals). PBMCs were isolated from freshly drawn heparinized blood by gradient centrifugation on lymphoprep (Nycomed, Norway), washed twice and re-suspended in RPMI 1640 medium with HEPES and ultraglutamine (Cambrex, Belgium) supplemented with 5% v/v human AB-serum (Cambrex, Belgium), 100 units/ml penicillin, and 0.1 mg/ml streptomycin (Sigma, St Louis, USA) (referred to as 5% AB-medium). Aliquots of the isolated PBMCs were frozen and were thawed later to stimulate the T cell lines. Additionally either fresh or thawed PBMCs were used as antigen presenting cells (APCs) in the proliferation assay as described later. In some cases the PBMCs were freezed at this stage and thawed later on to continue the experiment as described in the following. The isolated PBMCs (fresh or thawed) were CD8 depleted by MACS magnetic depletion according to the manufacturer's instructions (Miltenyi Biotec, Bergisch Gladbach, Germany). On day 0 the CD8-depleted PBMCs (2×10^6/ml) were stimulated in 1 ml bulk cultures in AB medium in 24 well plates (Nunc, Denmark) with the mixture of natural allergens: nPhl p 1 (0.5 μg/ml), mix of nPhl p 2/nPhl p 3 (1.0 μg/ml), nPhl p 4 (0.5 μg/ml), nPhl p 5 (0.5 μg/ml) and nCyn d 1 (0.5 μg/ml). Amount of 65 U, 30 U, and 30 U recombinant IL-2 (Chiron, USA) were added per well at days 5, 6 and 7, respectively. On day 14 cells were harvested to obtain T cell line generation 01 (referred to as TCL01).
(§2) On day 14 the T cells of TCL01 were isolated, washed and counted. The isolated T cells of TCL01 generation were used to perform either ELISpot or Fluorospot assay. TCL01 were further re-stimulated as described in the next paragraph for use in T cell proliferation. The aliquot for use in T cell proliferation was re-stimulated on day 14 to carry out proliferation experiment at day 24.
(§3) In the Fluorospot assays, release of IL-5 and IFN-γ upon T cell activation (of donor derived lines DK1-TCL01, and US1-TCL01) with a peptide or a peptide-mix described herein was measured by Fluorospot assay kit (Mabtech AB) and procedures were followed as per manufacturer's instructions. Briefly anti-human IL-5 and anti-human IFN-γ coated 96 well plates were obtained and blocked with 10% AB serum in RPMI. The plates were washed thoroughly and the isolated T cells were plated and incubated with either single peptides (2 μg/ml) or peptide mixes (2 μg/ml), or allergens nPhl p1, nPhl p 2, nPhl p 3, nPhl p 4, nPhl p 5, Cyn d 1 at 2 μg/ml for 20 hrs/37° C./5% CO2. After the incubation time the cells were removed by emptying the plate. Detection antibodies 7-B6-1-FS-FITC (1:200) and 5A10-biotin (2 μg/ml) were diluted in PBS-0.1% BSA and were added to the plate and incubated for 2 hours/room temperature (RT). There-after the plates were washed and anti-FITC-green (1:200) and SA-Red (1:200) diluted in PBS±0.1% BSA were added and incubated for 1 hour/RT/dark. After the incubation period the plates were washed, emptied and fluorescence enhancer solution was added for 15 minutes/RT. Plates were emptied, fluorescence enhancer solution was firmly tapped out against a clean paper, soft plastic under drain was removed and the plates were left in the dark to dry. The counts were inspected in a fluorospot reader. Hit criteria for peptide were 20 SFCs/10^6 PBMCs, p≤0.05 and poisson 0.05 stimulated cells compared to background, and a stimulation index (SI)≥2.
(§4) The peptides were identified as hits if they fulfilled the criteria as mentioned below where stimulation index (SI) value of 2 or above, Poisson value=<0.05 and P value=<0.05, SFC>=20 (IL-5/IFN-g)/10^6 cells and CPM>=1000 (proliferation) SI can be defined as [[…]/medium control] in a Fluorospot assay and [counts per minute (cpm)/medium control] in a proliferation assay.

[2] = system: allergen specific T cells; assay: T cell proliferation assay (72 h) on donor derived T cell lines (TCL02/TCL03); conditions: for Proliferation % donor coverage (TCL-02 DK1): T cell lines TCL-02 DK1, 30 donors, hit criteria SI>=2, CPM>=1000; for Proliferation strength (TCL-02 DK1): T cell lines TCL-02 DK1, strength of response (average relative magnitude)
How it was run: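 CD8-depleted PBMCs from grass-allergic donors stimulated with natural grass allergen mix (nPhl p 1 0.5 μg/ml) to raise T cell lines; restimulated with irradiated APCs, allergens or PHA-P (0.5 μg/ml) plus rIL-2. Proliferation to overlapping 20-mer and selected 15-mer grass peptides tested with TCL02 (day 24) or TCL03 (day 34).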

[3] = system: release of IL-5 upon T cell activation; assay: Fluorospot assay, IL-5 release (DK1-TCL01, US1-TCL01); conditions: head prints TCL-02 DK1; text: 25 TCL-01 DK1 lines
Protocol: as §1, §2, §3, §4

| Molecule | IFN-gamma % donor coverage (TCL-02 DK1) [1] | Proliferation % donor coverage (TCL-02 DK1) [2] | Proliferation strength (TCL-02 DK1) [2] | IL-5-Fluorospotr % donor coverage (TCL-02 DK1) [3] |
| --- | --- | --- | --- | --- |
| TALKKAITAMSEAQKAAKPA-OH [compound 85] | 0.00% | 20.00% | 2.80 | 4.00% |
| GFKAALAAAAGVPPADKYRT-OH [compound 63] | 0.00% | 26.67% | 4.10 | 12.00% |
| VPKVTFTVEKGSNEKHLAVL-OH [compound 30] | 0.00% | 3.33% | 0.40 | 0.00% |
| RASYEIKSKEPVESSGEPVL-OH [compound 96] | 0.00% | 6.67% | 0.60 | 0.00% |
| GAASNKAFAEGLSGEPKGAA-OH [compound 76] | 0.00% | 16.67% | 1.60 | 0.00% |
| YLALLVKYAAGDGNIVAVDI-OH [compound 105] | 4.00% | 16.67% | 1.90 | 12.00% |
| RIIAGTLEVHAVKPAAEEVK-OH [compound 80] | 0.00% | 30.00% | 4.40 | 0.00% |
| TPDKLTGPFTVRYTTEGGTK-OH [compound 26] | 4.00% | 13.33% | 2.00 | 24.00% |
| EGTKVTFHVEKGSNPNYLAL-OH [compound 24] | 4.00% | 36.67% | 7.40 | 16.00% |
| VKYEGDTMAEVELREHGSDE-OH [compound 32] | 0.00% | 6.67% | 0.20 | 0.00% |
| LVKYVNGDGDVVAVDIKEKG-OH [compound 9] | 8.00% | 26.67% | 1.60 | 20.00% |
| CSCC[C@H](N)C(=O)N[C@@H](CCCNC(=N)N)C(=O)N[C@@H](CC(N)=O)C(=O)N[C@H](C(=O)N[C@@H](Cc1ccccc1)C(=O)N[C@@H](CC(=O)O)C(=O)N[C@@H](CC(=O)O)C(=O)N[C@H](C(=O)N[C@H](C(=O)N1CCC[C@H]1C(=O)N[C@@H](C)C(=O)N[C@@H](CC(=O)O)C(=O)N[C@@H](Cc1ccccc1)C(=O)N[C@@H](CCCCN)C(=O)N[C@H](C(=O)O)C(C)C)C(C)C)C(C)C)C(C)C [compound 126] | 0.00% | 37.93% | 0.40 | 8.33% |
| EIKSTKPEASSGEPVVVHIT-OH [compound 3] | 8.00% | 36.67% | 3.40 | 8.00% |
| AGYTPAAPAGAEPAGKATTE-OH [compound 61] | 0.00% | 26.67% | 3.40 | 16.00% |
| GNTPIFKSGRGSGSSFEIKS-OH [compound 20] | 0.00% | 13.33% | 1.40 | 0.00% |
| CC[C@H](C)[C@H](NC(=O)[C@H](CC(N)=O)NC(=O)[C@H](CC(C)C)NC(=O)[C@@H](NC(=O)[C@H](CC(C)C)NC(=O)[C@@H](NC(=O)[C@H](CCCCN)NC(=O)[C@H](C)NC(=O)[C@H](CC(=O)O)NC(=O)[C@@H](N)CO)[C@@H](C)O)C(C)C)C(=O)N[C@@H](CCCCN)C(=O)N[C@@H](Cc1ccc(O)cc1)C(=O)N[C@H](C(=O)N[C@@H](CCCNC(=N)N)C(=O)N1CCC[C@H]1C(=O)O)[C@@H](C)O [compound 125] | 4.00% | 31.03% | 6.30 | 12.50% |
| KPTGAGPKDNGGASGYKDVD-OH [compound 17] | 4.00% | 23.33% | 2.80 | 8.00% |
| KVPPGPNITATYGDKWLDAK-OH [compound 15] | 0.00% | 3.33% | 0.50 | 0.00% |
| IKYTRPGDSLAEVELRQHGS-OH [compound 42] | 0.00% | 16.67% | 0.80 | 0.00% |
| GSDPKKLVLNIKYTRPGDSL-OH [compound 36] | 8.00% | 53.33% | 11.90 | 24.00% |
| CC[C@H](C)[C@H](NC(=O)[C@@H](N)CC(=O)O)C(=O)N[C@@H](CC(N)=O)C(=O)N[C@H](C(=O)NCC(=O)N[C@@H](Cc1ccccc1)C(=O)N[C@@H](CCCCN)C(=O)N[C@@H](C)C(=O)N[C@@H](C)C(=O)N[C@H](C(=O)N[C@@H](C)C(=O)N[C@@H](C)C(=O)N[C@@H](C)C(=O)N[C@@H](C)C(=O)NCC(=O)O)C(C)C)C(C)C [compound 131] | 0.00% | 55.55% | 6.50 | 22.22% |
| GGASGYKDVDKPPFSGMTGS-OH [compound 18] | 0.00% | 16.67% | 2.30 | 0.00% |
| PFDGMTASGNEPIFKDGLGS-OH [compound 94] | 4.00% | 16.67% | 2.90 | 4.00% |
| AMSEAQKAAKPAAAATATAT-OH [compound 86] | 0.00% | 10.00% | 1.40 | 0.00% |
